± gives the expanded uncertainty stated by the source.
Conditions: Crystal 2; Adiabatic calorimetry

Question: Which Triple point temperature does the source give for `O=P([O-])([O-])[O-].[Cs+].[Mg+2]` [caesium-magnesium monophosphate] here?
Answer: 235.69 ± 0.2 K

Reference: the NIST ThermoML archive (doi:10.1016/j.jct.2007.11.001)
